Measurements from ChEMBL document CHEMBL5678809, “Preclinical characterization of GLPG0634, a selective inhibitor of JAK1, for the treatment of inflammatory diseases” (J Immunol, 2013).
The source made the active and inactive calls. The rule behind the calls is not given here.

Legend:
[1] = target: Proto-oncogene tyrosine-protein kinase ROS (Homo sapiens) (UniProt P08922); assay: Inhibition of Ros (unknown origin) at 1 uM relative to control
[2] = Clearance in CD-1 mouse at 1 mg/kg, iv measured upto 8 hrs by LC-MS analysis; type: ADME, organism-based; conditions: in vivo
[3] = Tmax in Sprague-Dawley rat at 5 mg/kg, po measured upto 24 hrs by LC-MS analysis; type: ADME, organism-based; conditions: in vivo
[4] = target: Ribosomal protein S6 kinase alpha-1 (Homo sapiens) (UniProt Q15418); assay: Inhibition of Rsk1 (unknown origin) at 1 uM relative to control
RPMI-8226 = assay: Inhibition of human […] cell differentiation assessed as effect on IL-4 mRNA expression by RT-PCR analysis; type: functional, cell-based; conditions: dose 0.1-10 µM
[5] = target: Serine/threonine-protein kinase PAK 4 (Homo sapiens) (UniProt O96013); assay: Inhibition of PAK4 (unknown origin) at 1 uM relative to control
[6] = target: Mitogen-activated protein kinase 1 (Homo sapiens) (UniProt P28482); assay: Inhibition of MAPK1 (unknown origin) at 1 uM relative to control
[7] = Clearance in Sprague-Dawley rat at 1 mg/kg, iv measured upto 8 hrs by LC-MS analysis; type: ADME, organism-based; conditions: in vivo
[8] = target: Serine/threonine-protein kinase D2 (Homo sapiens) (UniProt Q9BZL6); assay: Inhibition of PKD2 (unknown origin) at 1 uM relative to control
[9] = AUC (0 to 24 hrs) in Sprague-Dawley rat at 1 mg/kg, iv measured upto 8 hrs by LC-MS analysis; type: ADME, organism-based; conditions: in vivo
[10] = target: Insulin receptor (Homo sapiens) (UniProt P06213); assay: Inhibition of IR (unknown origin) at 1 uM relative to control
[11] = Cmax in Sprague-Dawley rat at 5 mg/kg, po measured upto 24 hrs by LC-MS analysis; type: ADME, organism-based; conditions: in vivo
Rattus norvegicus = assay: In vivo inhibition of JAK1 in Sprague-Dawley rat assessed as reduction in MX2 mRNA level at 1 to 10 mg/kg, po measured for 24 hrs by RT-PCR analysis; type: functional, organism-based; conditions: dose 1-10 mg/kg
[12] = target: Tyrosine-protein kinase Fer (Homo sapiens) (UniProt P16591); assay: Inhibition of Fer (unknown origin) at 1 uM relative to control
Mus musculus [13] = assay: Antiarthritic activity against collagen-induced arthritis DBA/1J mouse model assessed as cartilage degradation by measuring lesion score in hind paw at 50 mg/kg, po administered twice daily for 14 days by histological analysis; type: functional, organism-based; conditions: time 14.0 day
[14] = target: Serine/threonine-protein kinase STK11 (Homo sapiens) (UniProt Q15831); assay: Inhibition of LKB1 (unknown origin) at 1 uM relative to control
Chain of Serine/threonine-protein kinase STK11 (Homo sapiens) (Q15831 whole entry): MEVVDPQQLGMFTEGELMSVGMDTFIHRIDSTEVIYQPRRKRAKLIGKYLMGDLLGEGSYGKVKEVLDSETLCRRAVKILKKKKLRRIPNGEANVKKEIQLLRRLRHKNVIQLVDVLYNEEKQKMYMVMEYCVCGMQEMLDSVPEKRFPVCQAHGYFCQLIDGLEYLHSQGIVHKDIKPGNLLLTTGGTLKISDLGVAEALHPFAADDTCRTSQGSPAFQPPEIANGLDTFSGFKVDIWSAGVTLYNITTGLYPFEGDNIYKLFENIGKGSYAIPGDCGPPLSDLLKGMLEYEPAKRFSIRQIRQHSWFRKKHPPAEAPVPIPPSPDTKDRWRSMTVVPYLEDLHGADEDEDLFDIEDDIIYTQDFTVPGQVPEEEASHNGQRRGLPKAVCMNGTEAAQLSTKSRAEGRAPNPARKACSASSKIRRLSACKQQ

[15] = target: Serine/threonine-protein kinase PAK 6 (Homo sapiens, UniProt Q9NQU5); assay: Inhibition of PAK6 (unknown origin)
[16] = target: Serine/threonine-protein kinase Sgk2 (Homo sapiens) (UniProt Q9HBY8); assay: Inhibition of SGK2 (unknown origin) at 1 uM relative to control
Chain of Serine/threonine-protein kinase Sgk2 (Homo sapiens) (Q9HBY8 whole entry): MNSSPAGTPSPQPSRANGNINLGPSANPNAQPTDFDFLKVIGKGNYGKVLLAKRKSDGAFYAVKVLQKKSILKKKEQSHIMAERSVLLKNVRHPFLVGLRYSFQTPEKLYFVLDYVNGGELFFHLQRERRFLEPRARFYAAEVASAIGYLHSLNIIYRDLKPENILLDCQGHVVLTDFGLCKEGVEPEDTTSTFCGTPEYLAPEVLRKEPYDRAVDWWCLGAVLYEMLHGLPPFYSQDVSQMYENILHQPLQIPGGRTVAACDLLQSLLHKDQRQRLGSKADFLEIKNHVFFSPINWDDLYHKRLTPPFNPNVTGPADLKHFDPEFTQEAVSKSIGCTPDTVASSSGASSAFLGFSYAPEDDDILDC

[17] = target: Serine/threonine-protein kinase Nek6 (Homo sapiens) (UniProt Q9HC98); assay: Inhibition of NEK6 (unknown origin) at 1 uM relative to control
[18] = target: Protein-tyrosine kinase 2-beta (Homo sapiens) (UniProt Q14289); assay: Inhibition of Pyk2 (unknown origin) at 1 uM relative to control
[19] = target: Tyrosine-protein kinase FRK (Homo sapiens) (UniProt P42685); assay: Inhibition of PTK5 (unknown origin) at 1 uM relative to control
[20] = target: Serine/threonine-protein kinase ULK2 (Homo sapiens) (UniProt Q8IYT8); assay: Inhibition of ULK2 (unknown origin) at 1 uM relative to control
[21] = target: Mitogen-activated protein kinase kinase kinase kinase 2 (Homo sapiens, UniProt Q12851); assay: Inhibition of GCK (unknown origin)
[22] = target: Serine/threonine-protein kinase WNK2 (Homo sapiens) (UniProt Q9Y3S1); assay: Inhibition of WNK2 (unknown origin) at 1 uM relative to control
Chain of Serine/threonine-protein kinase WNK2 (Homo sapiens) (Q9Y3S1 whole entry): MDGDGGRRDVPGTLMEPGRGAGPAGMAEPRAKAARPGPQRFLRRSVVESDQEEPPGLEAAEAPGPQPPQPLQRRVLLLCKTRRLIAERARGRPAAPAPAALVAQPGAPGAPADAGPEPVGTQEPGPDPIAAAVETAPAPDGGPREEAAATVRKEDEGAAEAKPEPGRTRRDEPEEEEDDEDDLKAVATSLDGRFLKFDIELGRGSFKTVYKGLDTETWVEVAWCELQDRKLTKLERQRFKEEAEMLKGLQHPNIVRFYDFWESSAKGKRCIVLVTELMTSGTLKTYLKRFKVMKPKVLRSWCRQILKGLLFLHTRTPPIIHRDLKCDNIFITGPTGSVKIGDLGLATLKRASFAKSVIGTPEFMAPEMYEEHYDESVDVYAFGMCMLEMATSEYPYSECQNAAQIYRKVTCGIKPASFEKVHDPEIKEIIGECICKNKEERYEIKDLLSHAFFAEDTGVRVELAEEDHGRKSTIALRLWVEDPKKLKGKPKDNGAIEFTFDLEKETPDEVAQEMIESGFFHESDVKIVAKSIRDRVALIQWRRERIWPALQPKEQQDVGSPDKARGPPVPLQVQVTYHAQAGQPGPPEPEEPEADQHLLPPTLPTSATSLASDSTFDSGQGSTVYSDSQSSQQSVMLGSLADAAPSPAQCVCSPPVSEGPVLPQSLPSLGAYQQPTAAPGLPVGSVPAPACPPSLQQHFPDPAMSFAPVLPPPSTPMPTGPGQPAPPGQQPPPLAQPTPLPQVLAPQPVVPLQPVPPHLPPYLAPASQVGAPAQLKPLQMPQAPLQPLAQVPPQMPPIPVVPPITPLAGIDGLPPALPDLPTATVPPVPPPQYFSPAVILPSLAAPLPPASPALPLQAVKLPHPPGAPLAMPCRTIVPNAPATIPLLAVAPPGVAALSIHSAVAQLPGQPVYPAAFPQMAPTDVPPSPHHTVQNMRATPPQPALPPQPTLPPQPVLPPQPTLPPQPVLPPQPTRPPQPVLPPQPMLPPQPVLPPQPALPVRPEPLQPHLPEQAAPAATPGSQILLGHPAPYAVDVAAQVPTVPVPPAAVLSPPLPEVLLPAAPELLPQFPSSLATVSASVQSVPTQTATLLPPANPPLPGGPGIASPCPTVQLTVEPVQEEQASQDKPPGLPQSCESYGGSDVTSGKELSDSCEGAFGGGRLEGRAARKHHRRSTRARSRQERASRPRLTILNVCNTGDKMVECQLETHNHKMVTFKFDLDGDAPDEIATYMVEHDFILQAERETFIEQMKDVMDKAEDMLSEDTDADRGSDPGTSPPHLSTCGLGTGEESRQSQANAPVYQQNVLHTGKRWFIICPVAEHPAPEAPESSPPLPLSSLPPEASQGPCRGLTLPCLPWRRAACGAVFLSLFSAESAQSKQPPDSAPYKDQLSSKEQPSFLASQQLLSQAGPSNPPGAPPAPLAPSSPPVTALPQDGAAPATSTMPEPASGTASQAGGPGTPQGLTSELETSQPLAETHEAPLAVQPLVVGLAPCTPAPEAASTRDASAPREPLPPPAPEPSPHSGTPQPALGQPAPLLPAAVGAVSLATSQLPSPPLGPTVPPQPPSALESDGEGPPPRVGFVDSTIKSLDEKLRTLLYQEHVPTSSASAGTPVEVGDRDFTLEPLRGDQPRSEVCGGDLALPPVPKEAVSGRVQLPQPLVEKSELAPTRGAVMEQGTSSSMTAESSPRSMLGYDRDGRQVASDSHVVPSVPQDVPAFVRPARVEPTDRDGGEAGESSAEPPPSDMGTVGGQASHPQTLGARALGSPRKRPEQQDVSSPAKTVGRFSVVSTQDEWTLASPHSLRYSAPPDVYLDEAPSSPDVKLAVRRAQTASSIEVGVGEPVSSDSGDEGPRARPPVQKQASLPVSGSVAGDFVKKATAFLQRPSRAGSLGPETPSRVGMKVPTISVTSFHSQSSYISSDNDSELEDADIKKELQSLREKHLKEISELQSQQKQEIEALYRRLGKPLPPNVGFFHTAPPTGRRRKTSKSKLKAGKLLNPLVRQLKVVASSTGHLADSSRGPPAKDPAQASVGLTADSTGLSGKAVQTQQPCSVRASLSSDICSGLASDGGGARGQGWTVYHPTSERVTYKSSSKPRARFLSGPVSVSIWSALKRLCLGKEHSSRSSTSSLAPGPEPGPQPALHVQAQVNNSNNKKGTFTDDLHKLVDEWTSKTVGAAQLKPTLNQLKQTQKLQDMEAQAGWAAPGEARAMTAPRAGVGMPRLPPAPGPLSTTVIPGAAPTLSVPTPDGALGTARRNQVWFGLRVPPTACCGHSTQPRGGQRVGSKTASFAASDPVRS

[23] = target: Serine/threonine-protein kinase 10 (Homo sapiens) (UniProt O94804); assay: Inhibition of LOK (unknown origin) at 1 uM relative to control
[24] = target: Casein kinase I isoform gamma-2 (Homo sapiens, UniProt P78368); assay: Inhibition of CSNK1G2 (unknown origin)
Mus musculus [25] = assay: Antiarthritic activity against collagen-induced arthritis DBA/1J mouse model assessed as bone degradation by measuring lesion score in hind paw at 50 mg/kg, po administered twice daily for 14 days by histological analysis; type: functional, organism-based; conditions: time 14.0 day
[26] = Half life in Sprague-Dawley rat at 1 mg/kg, iv measured upto 8 hrs by LC-MS analysis; type: ADME, organism-based; conditions: in vivo
[27] = target: Interleukin-1 receptor-associated kinase 4 (Homo sapiens, UniProt Q9NWZ3); assay: Inhibition of IRAK4 (unknown origin)
Chain of Interleukin-1 receptor-associated kinase 4 (Q9NWZ3 whole entry): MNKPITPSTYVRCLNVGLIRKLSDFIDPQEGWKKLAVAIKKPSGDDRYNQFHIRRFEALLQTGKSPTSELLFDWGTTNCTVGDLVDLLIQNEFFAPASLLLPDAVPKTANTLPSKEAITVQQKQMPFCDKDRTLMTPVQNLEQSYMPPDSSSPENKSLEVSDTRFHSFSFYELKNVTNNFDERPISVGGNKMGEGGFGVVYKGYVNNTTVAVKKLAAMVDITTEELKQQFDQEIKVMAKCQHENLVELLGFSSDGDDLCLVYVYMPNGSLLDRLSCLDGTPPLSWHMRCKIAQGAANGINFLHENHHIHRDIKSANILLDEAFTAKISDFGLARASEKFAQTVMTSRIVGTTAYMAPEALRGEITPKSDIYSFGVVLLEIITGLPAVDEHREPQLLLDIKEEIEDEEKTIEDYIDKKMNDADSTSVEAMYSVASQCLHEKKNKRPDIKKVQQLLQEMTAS

Mus musculus [28] = assay: Antiarthritic activity against collagen-induced arthritis DBA/1J mouse model assessed as reduction in IP-10 level in serum at 50 mg/kg, po measured for 4 hrs by luminex analysis; type: functional, organism-based
[29] = target: Tyrosine-protein kinase Mer (Homo sapiens) (UniProt Q12866); assay: Inhibition of Mer (unknown origin) at 1 uM relative to control
Chain of Tyrosine-protein kinase Mer (Homo sapiens) (Q12866 whole entry): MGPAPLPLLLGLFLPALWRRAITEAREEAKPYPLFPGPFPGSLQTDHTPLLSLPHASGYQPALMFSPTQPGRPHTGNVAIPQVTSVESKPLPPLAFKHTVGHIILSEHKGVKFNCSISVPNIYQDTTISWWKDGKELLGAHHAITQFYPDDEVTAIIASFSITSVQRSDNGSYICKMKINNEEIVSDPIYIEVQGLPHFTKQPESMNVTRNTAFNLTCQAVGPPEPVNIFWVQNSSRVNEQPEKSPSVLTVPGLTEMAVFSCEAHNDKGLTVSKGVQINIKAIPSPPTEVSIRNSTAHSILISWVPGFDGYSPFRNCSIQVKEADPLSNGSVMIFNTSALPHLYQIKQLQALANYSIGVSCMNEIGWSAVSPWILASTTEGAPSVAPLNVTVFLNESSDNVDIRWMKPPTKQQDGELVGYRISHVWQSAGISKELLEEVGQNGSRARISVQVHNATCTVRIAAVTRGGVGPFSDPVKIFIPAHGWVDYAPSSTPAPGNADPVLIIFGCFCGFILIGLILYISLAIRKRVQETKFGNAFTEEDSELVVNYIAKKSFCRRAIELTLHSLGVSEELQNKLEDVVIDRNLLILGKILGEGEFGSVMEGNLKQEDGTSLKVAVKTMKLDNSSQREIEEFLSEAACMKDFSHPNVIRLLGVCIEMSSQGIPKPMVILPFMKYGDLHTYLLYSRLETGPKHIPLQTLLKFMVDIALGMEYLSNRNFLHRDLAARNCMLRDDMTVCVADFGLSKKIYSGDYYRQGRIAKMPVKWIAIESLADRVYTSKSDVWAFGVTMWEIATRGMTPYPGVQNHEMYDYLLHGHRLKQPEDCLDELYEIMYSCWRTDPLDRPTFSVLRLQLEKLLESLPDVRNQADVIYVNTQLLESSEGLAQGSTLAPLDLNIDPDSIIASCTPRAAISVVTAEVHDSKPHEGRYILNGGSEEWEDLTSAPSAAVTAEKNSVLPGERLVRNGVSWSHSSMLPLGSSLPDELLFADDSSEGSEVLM

[30] = target: Dual specificity mitogen-activated protein kinase kinase 6 (Homo sapiens) (UniProt P52564); assay: Inhibition of MKK6 (unknown origin) at 1 uM relative to control
[31] = target: Calcium/calmodulin-dependent protein kinase type IV (Homo sapiens) (UniProt Q16566); assay: Inhibition of CaMK4 (unknown origin) at 1 uM relative to control
Aurora kinase B = Aurora kinase B (Homo sapiens, UniProt Q96GD4); assay: Inhibition of AURORA-B (unknown origin)
[32] = target: Cyclin-dependent kinase 2 (Homo sapiens, UniProt P24941); assay: Inhibition of CDK2 (unknown origin)
[33] = Cmax in Sprague-Dawley rat at 1 mg/kg, iv measured upto 8 hrs by LC-MS analysis; type: ADME, organism-based; conditions: in vivo
Mus musculus [34] = assay: Antiarthritic activity against collagen-induced arthritis DBA/1J mouse model assessed as reduction in MX2 expression in paw at 50 mg/kg, po measured for 2 weeks by RT-PCR analysis; type: functional, organism-based
[35] = target: Serine/threonine-protein kinase ULK3 (Homo sapiens) (UniProt Q6PHR2); assay: Inhibition of ULK3 (unknown origin) at 1 uM relative to control
Chain of Serine/threonine-protein kinase ULK3 (Homo sapiens) (Q6PHR2 whole entry): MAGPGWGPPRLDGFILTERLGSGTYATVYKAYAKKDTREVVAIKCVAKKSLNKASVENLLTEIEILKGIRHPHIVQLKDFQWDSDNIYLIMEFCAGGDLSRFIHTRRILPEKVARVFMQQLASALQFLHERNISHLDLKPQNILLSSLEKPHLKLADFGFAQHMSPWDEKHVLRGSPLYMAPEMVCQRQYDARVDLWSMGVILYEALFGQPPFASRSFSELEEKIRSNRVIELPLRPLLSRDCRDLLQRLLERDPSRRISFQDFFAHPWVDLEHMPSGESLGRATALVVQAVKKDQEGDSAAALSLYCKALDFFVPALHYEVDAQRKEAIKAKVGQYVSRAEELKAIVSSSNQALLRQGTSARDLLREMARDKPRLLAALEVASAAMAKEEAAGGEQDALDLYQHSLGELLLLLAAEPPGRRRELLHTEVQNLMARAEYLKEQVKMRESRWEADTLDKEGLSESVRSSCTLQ

[36] = target: Ephrin type-B receptor 4 (Homo sapiens) (UniProt P54760); assay: Inhibition of EphB4 (unknown origin) at 1 uM relative to control
[37] = target: Serine/threonine-protein kinase pim-1 (Homo sapiens) (UniProt P11309); assay: Inhibition of Pim-1 (unknown origin) at 1 uM relative to control
[38] = target: Tyrosine-protein kinase Lyn (Homo sapiens, UniProt P07948); assay: Inhibition of LYNA (unknown origin)
[39] = target: Protein-tyrosine kinase 6 (Homo sapiens) (UniProt Q13882); assay: Inhibition of BRK (unknown origin) at 1 uM relative to control

`O=C(Nc1nc2cccc(-c3ccc(CN4CCS(=O)(=O)CC4)cc3)n2n1)C1CC1` [FILGOTINIB] showed an inhibition [1] of -9%, a clearance [2] of 48.3 mL/min/kg and a Tmax [3] of 2.2 h. For the same compound, the inhibition [4] was 2%, the inhibition (RPMI-8226) was “Dose-Dependent Effect” and the inhibition [5] was 0%. For the same compound, the inhibition [6] was 1%, the clearance [7] was 23.3 mL/min/kg and the inhibition [8] was -10%. It also gave an AUC [9] of 739 ng·h/mL, an inhibition [10] of -1% and a Cmax [11] of 310 ng/mL. The inhibition (Rattus norvegicus) was “Active”, the inhibition [12] was -5% and the Activity (Mus musculus [13]) was “Active”. For the same compound, the inhibition [14] was -5%, the IC50 [15] was greater than 10 µM and the inhibition [16] was -4%. It also gave an inhibition [17] of -4%, an inhibition [18] of -8% and an inhibition [19] of -6%. The inhibition [20] was -8%, the IC50 [21] was greater than 10 µM and the inhibition [22] was -1%. For the same compound, the inhibition [23] was -3%, the IC50 [24] was greater than 10 µM and the Activity (Mus musculus [25]) was “Active”. The half-life [26] was 1.6 h, the IC50 [27] was greater than 10 µM and the Activity (Mus musculus [28]) was “Active”. The inhibition [29] was 44%, the inhibition [30] was -6% and the inhibition [31] was -5%. For the same compound, the IC50 (Aurora kinase B) was greater than 10 µM, the IC50 [32] was greater than 10 µM and the Cmax [33] was 1410 ng/mL. The Activity (Mus musculus [34]) was “Active”, the inhibition [35] was 4% and the inhibition [36] was 5%. The inhibition [37] was -7%, the IC50 [38] was greater than 10 µM and the inhibition [39] was -2%.
